Reference: US9951088B2, “D2 receptor modulators and methods of use thereof in the treatment of diseases and disorders” (SUNOVION PHARMACEUTICALS INC., priority 2012, dated 2018)

Columns and labels:
[1] = biological target: T1, long isoform of human D2 receptor (Homo sapiens, UniProt P14416); test: cAMP HTRF Agonist Assay (DRD2L PathHunter CHO-K1 cells, forskolin-stimulated); settings: for Emax: CHO-K1, read-out: cAMP (agonist mode) Emax
Method: Cell Lines: Activities of the compounds were assessed using a Chinese Hamster Ovary (CHO—K1) cell line that recombinantly expressed the long isoform of human D2 receptor (DRD2L PathHunter cells). The D2 receptor DNA sequence was modified to contain a “ProLink” at its C-terminus which allowed complementation with an “enzyme acceptor” (EA)-tagged β-arrestin protein. The recruitment of the O-arrestin by the D2 receptor led to complementation of the ProLink and EA and formation of active β-galactosidase which generated a D2-specific signal that was measured. The cAMP assay was measured in the same D2-expressing cell line. The D2 receptor inhibited cAMP formation so that the basal levels of cAMP were increased by the addition of an adenylate cyclase stimulator, forskolin.
cAMP HTRF Agonist Assay: Two days prior to testing, a vial of high density stock of DRD2L PathHunter cells was thawed, and cells were diluted into 10 mL of growth media (Ham's F12/10% HI FBS/1% PSG) and used to seed a T225 flask containing 50 mL of growth media. Cells were cultured for 2 days.
On the day of the assay, cells were dissociated in 5 mL cell dissociation buffer (enzyme free—Invitrogen) for 10-15 minutes at 37° C. Dissociated cells were diluted with 10 mL of growth media and counted. Cell counts were routinely ˜2×10^7 per T225. Cells were then pelleted at 1500 rpm for 5 min. Supernatant was aspirated, and cells were re-suspended in HBSS/20 mM Hepes, pH 7.4 to a cell density of 1×10^6/mL.
cAMP levels were determined using the Cisbio HTRF method. HRTF reagents (cAMP-HTRF acceptor fluorophore (d2) conjugate and cryptate-labeled anti-cAMP antibody) were prepared according to maunfacturers instructions. 5 μL of each were added to each well of an assay plate and incubated for 1 h at RT. The plate was then read on an Envision reader using the HTRF protocol, and data were exported for analysis.
(§1) The agonist Emax results were expressed as a percent of the dopamine control response ((measured specific response/control specific agonist response)×100) obtained in the presence of test article. The EC50 values (concentration producing a half-maximal specific response) were determined by non-linear regression analysis of the concentration-response curves.

[2] = biological target: T1, long isoform of human D2 receptor; test: Arrestin Agonist Assay (DRD2L PathHunter CHO-K1 cells, β-arrestin recruitment); settings: for Emax: CHO-K1, read-out: β-arrestin (agonist mode) Emax
Method: (§2) Cell Lines: Activities of the compounds were assessed using a Chinese Hamster Ovary (CHO—K1) cell line that recombinantly expressed the long isoform of human D2 receptor (DRD2L PathHunter cells). The D2 receptor DNA sequence was modified to contain a “ProLink” at its C-terminus which allowed complementation with an “enzyme acceptor” (EA)-tagged β-arrestin protein. The recruitment of the O-arrestin by the D2 receptor led to complementation of the ProLink and EA and formation of active β-galactosidase which generated a D2-specific signal that was measured.
Arrestin Agonist Assay: One day prior to testing, a vial of high density stock of DRD2L PathHunter cells was thawed, and 1×10^7 cells diluted into 40 mL of growth media (Ham's F12/10% HI FBS/1% PSG). 20 μL cells per well were seeded directly into assay plates, and the plates were allowed to rest for 1 h at RT before incubating in a plate incubator overnight.
5 μL diluted compound was added to cells in each well, and the assay plate was incubated for 90 min at 37° C. 12.5 μL PathHunter detection reagent was added to each well of the assay plate, which was then covered and incubated for 1 h at RT. The plate was read on an Envision reader using the Luminescence protocol, and the data were exported for analysis.
as §1

[3] = biological target: T1, long isoform of human D2 receptor; test: Arrestin Antagonist Assay (DRD2L PathHunter CHO-K1 cells, vs EC80 dopamine); settings: for Emax: CHO-K1, read-out: β-arrestin (antagonist mode) Imax
Method: as §2
Arrestin Antagonist Assay: One day prior to testing, a vial of high density stock of DRD2L PathHunter cells was thawed, and 1×10^7 cells diluted into 40 mL of growth media (Ham's F12/10% HI FBS/1% PSG). 20 μL cells per well were seeded directly into assay plates, and the plates were allowed to rest for 1 h at RT before incubating in a plate incubator overnight.
The plate was incubated for 30 min at 37° C. 15 μL PathHunter detection reagent was added to each well of the assay plate, which was then covered and incubated for 1 h at RT. The plate was read on an Envision reader using the Luminescence protocol, and the data were exported for analysis.
The IC50 values (concentration producing a half-maximal inhibitory response) were determined by non-linear regression analysis of the concentration-response curves.

T1 sequence (P14416 whole entry, canonical isoform): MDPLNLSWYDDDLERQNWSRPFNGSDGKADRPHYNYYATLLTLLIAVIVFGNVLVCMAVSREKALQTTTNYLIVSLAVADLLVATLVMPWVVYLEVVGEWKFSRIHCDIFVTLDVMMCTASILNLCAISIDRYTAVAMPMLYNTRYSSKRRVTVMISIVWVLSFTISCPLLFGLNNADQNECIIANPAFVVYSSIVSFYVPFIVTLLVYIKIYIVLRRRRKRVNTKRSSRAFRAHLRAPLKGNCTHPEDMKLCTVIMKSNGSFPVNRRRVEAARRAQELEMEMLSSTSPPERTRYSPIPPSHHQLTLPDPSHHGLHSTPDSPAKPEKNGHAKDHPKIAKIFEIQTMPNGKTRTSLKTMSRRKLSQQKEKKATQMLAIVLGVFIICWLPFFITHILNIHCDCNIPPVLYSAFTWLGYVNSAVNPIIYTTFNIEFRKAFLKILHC

Structure (SMILES)	IC50 [1] [nM]	Emax [1] [%]	EC50 [2] [nM]	Emax [2] [%]	IC50 [3] [nM]	Emax [3] [%]
N#Cc1ccc2c(c1)CCN(CCCCOc1ccc3cccc(O)c3n1)C2 [Compound 15, 2-(4-((8-hydroxyquinolin-2-yl)oxy)butyl)-1,2,3,4-tetrahydroisoquinoline-6-carbonitrile]	> 10000	< 10	> 10000	< 10	1000 to 10000	> 75
N#Cc1cccc2c1CCN(CCCCOc1ccc3c(n1)NC(=O)CC3)C2 [Compound 78, 2-(4-((7-oxo-5,6,7,8-tetrahydro-1,8-naphthyridin-2-yl)oxy)butyl)-1,2,3,4-tetrahydroisoquinoline-5-carbonitrile]	10 to 100	50 to 75	10 to 100	50 to 75	> 10000	< 10
O=c1ccc2ccc(OCCCCN3CCc4cc(Cl)ccc4C3)nc2[nH]1 [Compound 59, 7-(4-(6-chloro-3,4-dihydroisoquinolin-2(1H)-yl)butoxy)-1,8-naphthyridin-2(1H)-one]	< 10	10 to 25	> 10000	< 10	< 10	> 75
COc1cccnc1N1CCN(CCCCOc2ccc3cccc(O)c3n2)CC1 [Compound 9, 2-(4-(4-(3-methoxypyridin-2-yl)piperazin-1-yl)butoxy)quinolin-8-ol]	< 10	25 to 50	> 10000	< 10	10 to 100	> 75
Cc1ccc2c(c1)CN(CCCCOc1ccc3ccc(=O)[nH]c3n1)CC2 [Compound 65, 7-(4-(7-methyl-3,4-dihydroisoquinolin-2(1H)-yl)butoxy)-1,8-naphthyridin-2(1H)-one]	< 10	10 to 25	> 10000	< 10	10 to 100	> 75
N#Cc1ccc2c(c1)CCN(CCCCOc1ccc3ccc(=O)[nH]c3n1)C2 [Compound 57, 2-(4-((7-oxo-7,8-dihydro-1,8-naphthyridin-2-yl)oxy)butyl)-1,2,3,4-tetrahydroisoquinoline-6-carbonitrile]	> 10000	< 10	> 10000	< 10	10 to 100	> 75
Clc1cccc(N2CCN(CCCCOc3ccc4cn[nH]c4n3)CC2)c1Cl [Compound 1, 6-(4-(4-(2,3-dichlorophenyl)piperazin-1-yl)butoxy)-1H-pyrazolo[3,4-b]pyridine]	< 10	25 to 50	> 10000	< 10	< 10	> 75
N#Cc1cccc2c1CN(CCCCOc1ccc3c(n1)NC(=O)CC3)CC2 [Compound 80, 2-(4-((7-oxo-5,6,7,8-tetrahydro-1,8-naphthyridin-2-yl)oxy)butyl)-1,2,3,4-tetrahydroisoquinoline-8-carbonitrile]	> 10000	< 10	> 10000	< 10	100 to 1000	> 75
Oc1cccc2ccc(OCCCCN3CCc4ccccc4C3)nc12 [Compound 12, 2-(4-(3,4-dihydroisoquinolin-2(1H)-yl)butoxy)quinolin-8-ol]	> 10000	< 10	10 to 100	10 to 25	1000 to 10000	> 75
O=C1CCc2ccc(OCCCCN3CCc4c(cnn4-c4ccccc4)C3)cc2N1 [Compound 31, 7-(4-(1-phenyl-6,7-dihydro-1H-pyrazolo[4,3-c]pyridin-5(4H)-yl)butoxy)-3,4-dihydroquinolin-2(1H)-one]	< 10	> 75	< 10	> 75	> 10000	< 10
N#Cc1cccnc1N1CCN(CCCCOc2ccc3cccc(O)c3n2)CC1 [Compound 22, 2-(4-(4-((8-hydroxyquinolin-2-yl)oxy)butyl)piperazin-1-yl)nicotinonitrile]	< 10	25 to 50	10 to 100	25 to 50	100 to 1000	25 to 50
Oc1cccc2ccc(OCCCCN3CCN(c4cccc(Cl)c4Cl)CC3)nc12 [Compound 5, 2-(4-(4-(2,3-dichlorophenyl)piperazin-1-yl)butoxy)quinolin-8-ol]	10 to 100	25 to 50	10 to 100	10 to 25	100 to 1000	> 75
O=C1NCCc2ccc(OCCCCN3CCc4cc(F)ccc4C3)nc2N1 [Compound 84, 8-(4-(6-fluoro-3,4-dihydroisoquinolin-2(1H)-yl)butoxy)-4,5-dihydro-1H-pyrido[2,3-d][1,3]diazepin-2(3H)-one]	> 10000	< 10	> 10000	< 10	10 to 100	> 75
O=C1CCc2ccc(OCCCCN3CCn4cncc4C3)cc2N1 [Compound 33, 7-(4-(5,6-dihydroimidazo[1,5-a]pyrazin-7(8H)-yl)butoxy)-3,4-dihydroquinolin-2(1H)-one]	> 10000	< 10	> 10000	< 10	1000 to 10000	50 to 75
O=c1ccc2ccc(OCCCCN3CCc4nn(-c5ccccc5)cc4C3)nc2[nH]1 [Compound 66, 7-(4-(2-phenyl-6,7-dihydro-2H-pyrazolo[4,3-c]pyridin-5(4H)-yl)butoxy)-1,8-naphthyridin-2(1H)-one]	10 to 100	10 to 25	> 10000	< 10	10 to 100	> 75
COc1ccc(-n2cc3c(n2)CCN(CCCCOc2ccc4c(c2)NC(=O)CC4)C3)cc1 [Compound 39, 7-(4-(2-(4-methoxyphenyl)-6,7-dihydro-2H-pyrazolo[4,3-c]pyridin-5(4H)-yl)butoxy)-3,4-dihydroquinolin-2(1H)-one]	> 10000	< 10	> 10000	< 10	1000 to 10000	> 75
CS(=O)(=O)Nc1cccc(OCCCCN2CCc3ccccc3C2)n1 [Compound 42, N-(6-(4-(3,4-dihydroisoquinolin-2(1H)-yl)butoxy)pyridin-2-yl)methanesulfonamide]	> 10000	< 10	> 10000	< 10	1000 to 10000	> 75
CN(C)c1ncnc2c1CCN(CCCCOc1ccc3c(c1)NC(=O)CC3)C2 [Compound 29, 7-(4-(4-(dimethylamino)-5,6-dihydropyrido[3,4-d]pyrimidin-7(8H)-yl)butoxy)-3,4-dihydroquinolin-2(1H)-one]	10 to 100	25 to 50	100 to 1000	25 to 50	100 to 1000	> 75
O=C1CCc2ccc(OCCCCN3CCc4cc(F)ccc4C3)nc2N1 [Compound 72, 7-(4-(6-fluoro-3,4-dihydroisoquinolin-2(1H)-yl)butoxy)-3,4-dihydro-1,8-naphthyridin-2(1H)-one]	> 10000	< 10	> 10000	< 10	10 to 100	> 75
c1ccc2c(N3CCN(CCCCOc4ccc5cn[nH]c5n4)CC3)cccc2c1 [Compound 2, 6-(4-(4-(naphthalen-1-yl)piperazin-1-yl)butoxy)-1H-pyrazolo[3,4-b]pyridine]	10 to 100	10 to 25	10 to 100	10 to 25	100 to 1000	50 to 75
